Read-outs that look alike come from different tables or passages of the source.
Legend:
[1] = system: A. calcoaceticus; format: cell-based
[2] = system: E. cloacae; format: cell-based; details: E. cloacae ECL007
[3] = system: E. coli; format: cell-based; details: for MIC: E. coli ECO002; for Peptide MIC values: agarose dilution
[4] = system: E. faecalis; format: cell-based
[5] = system: H. influenzae; assay: Agarose dilution assay (MIC); format: cell-based
[6] = system: K. pneumoniae; format: cell-based; details: K. pneumoniae KP002
[7] = system: P. aeruginosa; format: cell-based; details: for Peptide MIC values: agarose dilution
[8] = system: S. epidermidis; format: cell-based
[9] = system: S. maltophilia; format: cell-based
[10] = system: S. marcescens; format: cell-based; details: for Peptide MIC values: agarose dilution
[11] = system: S. pneumoniae; assay: Agarose dilution assay (MIC); format: cell-based; details: for MIC: S. pneumoniae SBSPN2; for Peptide MIC values: agarose dilution
[12] = system: microorganisms with acquired resistance; assay: microbe, parasite or virus in culture; format: cell-based; details: for Peptide MIC: combination with Mupirocin, in µg/mL
[13] = system: MSSA (Smith, ATCC # 19640); assay: In vivo efficacy, MSSA infection; design: species or system S. aureus; details: formulation D; for % Survival: 60 min post-infection, end of eight day observation
[14] = system: inherently resistant microorganisms; assay: microbe, parasite or virus in culture; format: cell-based; details: for FIC: peptide + Tobramycin
[15] = system: vancomycin / teicoplanin resistant enterococci; assay: microbe, parasite or virus in culture; format: cell-based; details: for Peptide MIC Alone: Vancomycin section; for FIC: peptide + Vancomycin

In the case of ILKKWPWWPWRRK [MBI 11CN], the MIC ([1]; A. calcoaceticus AC001) is reported as 128 mg/L, the MIC [2] is reported as >64 mg/L and the MIC [3] is reported as 8 mg/L. For the same sequence, the “Peptide MIC values” ([3]; E. coli ATCC 25922) was 16 mg/L, the “Peptide MIC values” ([3]; E. coli NCTC 10418) was 4 mg/L and the MIC ([4]; E. faecalis EFS001) was 32 mg/L. For the same sequence, the MIC ([5]; H. influenzae HIN001) was >128 mg/L, the MIC [6] was 128 mg/L and the MIC ([7]; P. aeruginosa PA003) was >128 mg/L. For the same sequence, the “Peptide MIC values” ([7]; P. aeruginosa ATCC 27853) was >128 mg/L, the “Peptide MIC values” ([7]; P. aeruginosa NCTC 10662) was >128 mg/L and the MIC ([8]; S. epidermidis SE001) was 2 mg/L. The MIC ([9]; S. maltophilia SMA001) was 64 mg/L, the MIC ([10]; S. marcescens SBSM1) was >128 mg/L and the MIC ([10]; S. marcescens SMS003) was >128 mg/L. For the same sequence, the “Peptide MIC values” ([10]; S. marcescens SM82) was >128 mg/L, the MIC [11] was >128 mg/L and the “Peptide MIC values” ([11]; S. pneumoniae 406LE8) was >128 mg/L. For the same sequence, the “Peptide MIC values” ([11]; S. pneumoniae 60120) was >128 mg/L, the “Peptide MIC values” ([11]; S. pneumoniae ATCC 49619) was 64 mg/L and the “Peptide MIC + Tobramycin” value ([12]; A. baumannii ABI001) was 16 mg/L. For the same sequence, the “Tobramycin MIC + Peptide” value ([12]; A. baumannii ABI001) was 4 mg/L, the “Peptide MIC Alone” value ([12]; A. baumannii ABI001, Tobramycin section) was 64 mg/L and the “Peptide MIC + Piperacillin” value ([12]; A. calcoaceticus 3) was 32 mg/L. For the same sequence, the “Piperacillin MIC + Peptide” value ([12]; A. calcoaceticus 3) was 16 mg/L, the “Peptide MIC Alone” value ([12]; A. calcoaceticus 3, Piperacillin section) was 64 mg/L and the “Peptide MIC + Tobramycin” value ([12]; E. coli EC0006) was 0.25 mg/L. For the same sequence, the “Tobramycin MIC + Peptide” value ([12]; E. coli EC0006) was 4 mg/L, the “Peptide MIC Alone” value ([12]; E. coli EC0006, Tobramycin section) was 8 mg/L and the “Peptide MIC” value ([12]; E. faecium) was 8. The “Peptide MIC + Piperacillin” value ([12]; P. aeruginosa 22) was 32 mg/L, the “Piperacillin MIC + Peptide” value ([12]; P. aeruginosa 22) was 4 mg/L and the “Peptide MIC Alone” value ([12]; P. aeruginosa 22, Piperacillin section) was 64 mg/L. The “Peptide MIC + Piperacillin” value ([12]; P. aeruginosa 23) was 4 mg/L, the “Piperacillin MIC + Peptide” value ([12]; P. aeruginosa 23) was 64 mg/L and the “Peptide MIC Alone” value ([12]; P. aeruginosa 23, Piperacillin section) was 128 mg/L. The “Peptide MIC + Tobramycin” value ([12]; P. aeruginosa PA032) was 64 mg/L, the “Tobramycin MIC + Peptide” value ([12]; P. aeruginosa PA032) was 4 mg/L and the “Peptide MIC Alone” value ([12]; P. aeruginosa PA032, Tobramycin section) was >128 mg/L. For the same sequence, the “Peptide MIC” value ([12]; S. aureus) was 16, the “Peptide MIC + Piperacillin” value ([12]; S. maltophilia 2) was 32 mg/L and the “Piperacillin MIC + Peptide” value ([12]; S. maltophilia 2) was 16 mg/L. For the same sequence, the “Peptide MIC Alone” value ([12]; S. maltophilia 2, Piperacillin section) was 64 mg/L, the “Peptide MIC + Tobramycin” value ([12]; S. maltophilia SMA029) was 64 mg/L and the “Tobramycin MIC + Peptide” value ([12]; S. maltophilia SMA029) was 2 mg/L. The “Peptide MIC Alone” value ([12]; S. maltophilia SMA029, Tobramycin section) was >128 mg/L, the “Peptide MIC + Tobramycin” value ([12]; S. maltophilia SMA030) was 64 mg/L and the “Tobramycin MIC + Peptide” value ([12]; S. maltophilia SMA030) was 2 mg/L. The “Peptide MIC Alone” value ([12]; S. maltophilia SMA030, Tobramycin section) was >128 mg/L, the FIC ([12]; peptide + Piperacillin, A. calcoaceticus 3) was 1.00 and the FIC ([12]; peptide + Piperacillin, P. aeruginosa 22) was 0.52. It also gave an FIC ([12]; peptide + Piperacillin, P. aeruginosa 23) of 0.53, an FIC ([12]; peptide + Piperacillin, S. maltophilia 2) of 0.75 and an FIC ([12]; peptide + Tobramycin, A. baumannii ABI001) of 0.50. The FIC ([12]; peptide + Tobramycin, E. coli EC0006) was 0.53, the FIC ([12]; peptide + Tobramycin, P. aeruginosa PA032) was 0.50 and the FIC ([12]; peptide + Tobramycin, S. maltophilia SMA029) was 0.27. The FIC ([12]; peptide + Tobramycin, S. maltophilia SMA030) was 0.27, the “% Survival” value ([13]; 12 mg/kg ip) was 0% and the “% Survival” value ([13]; 24 mg/kg ip) was 50%. For the same sequence, the “mice rescued from MSSA infection” value ([13]; mice, ip 60 min post-infection, 35.7 mg/kg) was 100% and the activity ([13]; mice, ip, dose levels lower than 35.7 mg/kg) was “little or no activity”.
For ILKKFPFFPFRRK [MBI 11A1CN], the MIC ([1]; A. calcoaceticus AC002) was 16 mg/L, the MIC [2] was >128 mg/L and the MIC [3] was 32 mg/L. For the same sequence, the “Peptide MIC values” ([3]; E. coli ATCC 25922) was 128 mg/L, the “Peptide MIC values” ([3]; E. coli ESS) was 16 mg/L and the “Peptide MIC values” ([3]; E. coli NCTC 10418) was 16 mg/L. For the same sequence, the MIC ([4]; E. faecalis EFS002) was 32 mg/L, the MIC ([5]; H. influenzae HIN002) was >128 mg/L and the MIC [6] was >128 mg/L. For the same sequence, the MIC ([7]; P. aeruginosa PA004) was >128 mg/L, the “Peptide MIC values” ([7]; P. aeruginosa ATCC 27853) was >128 mg/L and the “Peptide MIC values” ([7]; P. aeruginosa NCTC 10662) was >128 mg/L. The MIC ([8]; S. epidermidis SE002) was 16 mg/L, the MIC ([9]; S. maltophilia SMA002) was >128 mg/L and the MIC ([10]; S. marcescens SBSM2) was >128 mg/L. For the same sequence, the “Peptide MIC values” ([10]; S. marcescens SM76) was >128 mg/L, the “Peptide MIC values” ([10]; S. marcescens SM82) was >128 mg/L and the MIC [11] was >128 mg/L. For the same sequence, the “Peptide MIC values” ([11]; S. pneumoniae 406LE8) was >128 mg/L, the “Peptide MIC values” ([11]; S. pneumoniae 60120) was >128 mg/L and the “Peptide MIC values” ([11]; S. pneumoniae ATCC 49619) was >128 mg/L. For the same sequence, the “Peptide MIC + Tobramycin” value ([14]; S. haemolyticus) was 0.125 mg/L, the “Peptide MIC Alone” value ([14]; S. haemolyticus, Tobramycin section) was 16 mg/L and the FIC ([14]; S. aureus) was 0.50. The FIC ([14]; S. haemolyticus) was 0.51, the “Peptide MIC” value ([12]; S. aureus) was 32 and the “Peptide MIC + Vancomycin” value ([15]; E. faecalis EFS003) was 32 mg/L. For the same sequence, the “Vancomycin MIC + Peptide” value ([15]; E. faecalis EFS003) was 4 mg/L, the “Peptide MIC Alone” value ([15]; E. faecalis EFS003) was >128 mg/L and the “Peptide MIC + Vancomycin” value ([15]; E. faecalis EFS006) was 0.25 mg/L. The “Vancomycin MIC + Peptide” value ([15]; E. faecalis EFS006) was 4 mg/L, the “Peptide MIC Alone” value ([15]; E. faecalis EFS006) was 128 mg/L and the “Peptide MIC + Vancomycin” value ([15]; E. faecalis EFS010) was 8 mg/L. The “Vancomycin MIC + Peptide” value ([15]; E. faecalis EFS010) was 1 mg/L, the “Peptide MIC Alone” value ([15]; E. faecalis EFS010) was 128 mg/L and the “Peptide MIC + Vancomycin” value ([15]; E. faecalis EFS014) was 2 mg/L. For the same sequence, the “Vancomycin MIC + Peptide” value ([15]; E. faecalis EFS014) was 1 mg/L, the “Peptide MIC Alone” value ([15]; E. faecalis EFS014) was 4 mg/L and the “Peptide MIC + Vancomycin” value ([15]; E. faecium EFM004) was 16 mg/L. The “Vancomycin MIC + Peptide” value ([15]; E. faecium EFM004) was 0.5 mg/L, the “Peptide MIC Alone” value ([15]; E. faecium EFM004) was 32 mg/L and the “Peptide MIC + Vancomycin” value ([15]; E. faecium EFM007) was 16 mg/L. For the same sequence, the “Vancomycin MIC + Peptide” value ([15]; E. faecium EFM007) was 4 mg/L, the “Peptide MIC Alone” value ([15]; E. faecium EFM007) was 64 mg/L and the “Peptide MIC + Vancomycin” value ([15]; E. faecium EFM009) was 8 mg/L. The “Vancomycin MIC + Peptide” value ([15]; E. faecium EFM009) was 4 mg/L, the “Peptide MIC Alone” value ([15]; E. faecium EFM009) was 64 mg/L and the FIC ([15]; E. faecalis EFS003) was 0.63. For the same sequence, the FIC ([15]; E. faecalis EFS006) was 0.50, the FIC ([15]; E. faecalis EFS010) was 0.13 and the FIC ([15]; E. faecalis EFS014) was 0.51. It also gave an FIC ([15]; E. faecium EFM004) of 0.50, an FIC ([15]; E. faecium EFM007) of 0.28 and an FIC ([15]; E. faecium EFM009) of 0.25. For the same sequence, the “% Survival” value ([13]; 12 mg/kg ip) was 0%, the “% Survival” value ([13]; 18 mg/kg ip) was 0% and the “% Survival” value ([13]; 24 mg/kg ip) was 0%.
